Values after ≈ are worked out from the molar mass of the structure shown.
What was measured:
Anas platyrhynchos = details: acute; oral; unspecified; mortality
Apis mellifera = details: acute, mortality
Canidae = details: chronic; duration: 1 years; oral; Dog Other; body weight
Colinus virginianus = details: reproduction developmental; F
Cucumis sativus = details: not reported; other
Daphnia magna = details: chronic/long-term; duration: 21 days; mortality
Ictalurus punctatus = details: acute; duration: 96 hours; mortality
Oryctolagus sp. = details: reproduction developmental
Pimephales promelas = details: chronic/long-term; duration: 35 days; other
Rattus norvegicus = details: oral
Tagia sp. = details: acute; mortality
Aphidius rhopalosiphi = experiment: LR50; higher = less toxic; details: not reported; mortality
Typhlodromus pyri = experiment: LR50; higher = less toxic; details: not reported; mortality

For CCOC(=O)C1CC(=O)C(=C(O)C2CC2)C(=O)C1 (stereo not given) [Trinexapac-ethyl], the LD50 (Anas platyrhynchos) was > 2000 mg/kg, the LD50 (Apis mellifera; dermal) was 69.6 µg/piece and the LD50 (Apis mellifera; oral, unspecified) was > 108 µg/piece. For the same compound, the NOAEL (Canidae) was 32 mg/kg-day, the NOEC (Colinus virginianus) was ≥ 53.3 mg/kg-day and the NOEC (Cucumis sativus) was > 24 g/ha. The NOEC (Daphnia magna) was 2.4 mg/L, the LC50 (Ictalurus punctatus) was 35 µg/mL (≈ 139 µM) and the NOAEL (Oryctolagus sp.) was 60 mg/kg-day. For the same compound, the NOEC (Pimephales promelas) was 0.41 mg/L, the LD50 (Rattus norvegicus; acute, mortality) was 4210 mg/kg and the NOAEL (Rattus norvegicus; subchronic, duration: 90 days, body weight) was ≤ 34 mg/kg-day. For the same compound, the LC50 (Tagia sp.) was > 250 mg/kg, the LR50 (Aphidius rhopalosiphi) was 114 g/ha and the LR50 (Typhlodromus pyri) was 197 g/ha.

— EPA's ToxValDB 9.5 (doi:10.2903/j.efsa.2006.57r)
